Laboratory results published in patent US10953016B2, “Solid dosage form containing quinazoline derivative” (Shionogi & Co., Ltd., priority 2017, dated 2021).
Where a name gives a salt, the structure may show the parent alone.

Columns and labels:
Type in all cases: physicochemical
[1] = Influence of light wavelength on related substances in solution
Experimental: In order to research the influence of light of the compound represented by formula (I), the amount of the related substances was measured after illumination with constant quantity of light.
A fixed amount of monohydrochloride of the compound represented by formula (I) was collected and dissolved in a mix of pH7 buffer:methanol:acetonitrile=38:31:31 to prepare a solution of 800 μg/mL. The solution was sealed in glass bottles. Thereafter, the glass bottles containing solution were irradiated with light of different wavelengths by a light irradiator (CRM-FA manufactured by Nippon Spectroscopy) and the amounts of related substances were measured.
The amount of the related substances was measured by liquid chromatography by employing the following method and conditions. The main related substance was the E-form of the optical isomer of the compound represented by formula (I). Therefore, in the analysis of the related substance amount, the E-form of the optical isomer of the compound represented by formula (I) was used as a reference for the analysis. • Detector: ultraviolet absorptiometer (measurement wavelength: 225 nm) • Column: Cadenza CW-C18 3μ, 4.6×150 mm (Imtakt) • Column temperature: constant temperature around 35° C. • Mobile Phase A: 10 mM ammonium acetate, […]

[2] = Light exposure test of crystals (E isomer by HPLC); conditions: for E isomer (Retention time 38 minutes) Increased amount: light exposed sample minus dark control
[3] = Water sorption-desorption isothermal measurement; conditions: ratio of increased moisture mass
From the text: Water Sorption-desorption Isothermal Measurement

[4] = Test of solubility in organic solvent; conditions: stirred at 22° C. for 4 hours, supernatant; for Concentration (% by weight) 2-Propanol: suspended in 2-propanol; for Concentration (% by weight) Acetone: suspended in acetone; for Concentration (% by weight) Ethyl acetate: suspended in ethyl acetate
Experimental: The monohydrochloride crystalline form I, monohydrochloride crystalline form V, and free base crystals of the compound represented by formula (I) were each suspended in 2-propanol, acetone, and ethyl acetate, and stirred at 22° C. for 4 hours, and the concentrations of supernatants were measured.

[5] = Test of solubility in water for injection; conditions: stirred at 37° C. for 1 hour
Experimental: 1. Formulation of Calibration Curve
First, 5 mg of monohydrochloride crystalline form I of the compound represented by formula (I) was precisely weighed and dissolved in a mixed solution of acetonitrile:water (1:1), and thus a 500 μg/mL solution was obtained. The obtained solution was diluted with a mixed solution of acetonitrile:water (1:1) such that the concentrations of the compound were 5 and 50 μg/mL, and a standard calibration curve was prepared. The same operation was carried out for monohydrochloride crystalline form II, monohydrochloride crystalline form V, monohydrochloride crystalline form VI, mono-p-toluenesulfonate crystalline form I, and free base crystals.
2. Formulation of Sample Solution
First, 1 mg of monohydrochloride crystalline form I of the compound represented by formula (I) was precisely weighed and transferred to a vial having a volume of 4 mL. Then, 1 mL of water (water for injection) was added, and the mixture was stirred at 37° C. for 1 hour. After being stirred, this suspension was filtered, and the peak area using a solution obtained by diluting the filtrate two-fold with a mixed solution of acetonitrile:water (1:1) as a sample. The concentration was calculated using the peak area and the calibration curve prepared above. The same operation was carried out for monohydrochloride crystalline form II, monohydrochloride crystalline form V, monohydrochloride crystalline form VI, mono-p-toluenesulfonate crystalline form I, and free base crystals.

[6] = listed as mono-p-toluenesulfonate crystalline form I
[7] = listed as Monohydrochloride form crystal VI
[8] = listed as Monohydrochloride form crystal V

CC#C/C(=N\OC[C@H]1COCCN1)c1ccc2ncnc(Nc3ccc(OCc4cccc(F)c4)c(Cl)c3)c2c1
Total amount of related substances, wavelength of light higher than 450 nm ([1]; 800 μg/mL solution in pH7 buffer:methanol:acetonitrile=38:31:31, light higher than 450 nm): increased little
Total amount of related substances, wavelength of light shorter than 450 nm ([1]; 800 μg/mL solution in pH7 buffer:methanol:acetonitrile=38:31:31, light shorter than 450 nm): increased as the wavelength decreased

CC#C/C(=N\OC[C@H]1COCCN1)c1ccc2ncnc(Nc3ccc(OCc4cccc(F)c4)c(Cl)c3)c2c1 [Free base crystal]
E isomer (Retention time 38 minutes) Light exposed sample [2]: 2.59 area %
E isomer (Retention time 38 minutes) Increased amount [2]: 2.59 area %
Ratio of increased mass [3]: About 1.0%
Concentration (% by weight) 2-Propanol [4]: 0.49 % by weight
Concentration (% by weight) Acetone [4]: 8.1 % by weight
Concentration (% by weight) Ethyl acetate [4]: 3.3 % by weight
Solubility in water for injection ([5]; listed as free base crystals): not dissolved in water for injection at all

CC#C/C(=N\OC[C@H]1COCCN1)c1ccc2ncnc(Nc3ccc(OCc4cccc(F)c4)c(Cl)c3)c2c1 [Mono-p-toluenesulfonate crystalline form I]
E isomer (Retention time 38 minutes) Dark control [2]: 0.10 area %
E isomer (Retention time 38 minutes) Light exposed sample [2]: 32.86 area %
E isomer (Retention time 38 minutes) Increased amount [2]: 32.76 area %
E isomer (Retention time 38 minutes) Increased amount [2, 6]: about 33 area %
Ratio of increased mass [3]: About 1.4%
Ratio of increased mass [3, 6]: small
Solubility in water for injection [5]: high solubilities

CC#C/C(=N\OC[C@H]1COCCN1)c1ccc2ncnc(Nc3ccc(OCc4cccc(F)c4)c(Cl)c3)c2c1 [Monohydrochloride crystalline form II]
E isomer (Retention time 38 minutes) Dark control [2]: 1.44 area %
E isomer (Retention time 38 minutes) Light exposed sample [2]: 1.21 area %
E isomer (Retention time 38 minutes) Increased amount [2]: −0.23 area %
Ratio of increased mass [3]: About 0.3%
Ratio of increased mass ([3]; listed as monohydrochloride crystalline form H): small
Solubility in water for injection [5]: high solubilities

CC#C/C(=N\OC[C@H]1COCCN1)c1ccc2ncnc(Nc3ccc(OCc4cccc(F)c4)c(Cl)c3)c2c1 [Monohydrochloride crystalline form I]
E isomer (Retention time 38 minutes) Dark control [2]: 0.63 area %
E isomer (Retention time 38 minutes) Light exposed sample [2]: 4.41 area %
E isomer (Retention time 38 minutes) Increased amount [2]: 3.78 area %
Ratio of increased mass [3]: About 0.8%
Ratio of increased mass ([3]; listed as monohydrochloride crystalline form I): small
Concentration (% by weight) 2-Propanol [4]: 0.03 % by weight
Concentration (% by weight) Acetone [4]: 0.08 % by weight
Concentration (% by weight) Ethyl acetate [4]: 0.01 % by weight
Solubility in water for injection [5]: high solubilities

CC#C/C(=N\OC[C@H]1COCCN1)c1ccc2ncnc(Nc3ccc(OCc4cccc(F)c4)c(Cl)c3)c2c1 [Monohydrochloride crystalline form VI]
E isomer (Retention time 38 minutes) Dark control [2, 7]: 1.16 area %
E isomer (Retention time 38 minutes) Increased amount [2, 7]: 0.64 area %
E isomer (Retention time 38 minutes) Light exposed sample [2, 7]: 1.80 area %
Ratio of increased mass [3]: About 0.5%
Ratio of increased mass ([3]; listed as monohydrochloride crystalline form VI): small
Solubility in water for injection [5]: high solubilities

CC#C/C(=N\OC[C@H]1COCCN1)c1ccc2ncnc(Nc3ccc(OCc4cccc(F)c4)c(Cl)c3)c2c1 [Monohydrochloride crystalline form V]
E isomer (Retention time 38 minutes) Dark control [2, 8]: 0.13 area %
E isomer (Retention time 38 minutes) Increased amount [2, 8]: 1.06 area %
E isomer (Retention time 38 minutes) Light exposed sample [2, 8]: 1.19 area %
Ratio of increased mass [3]: About 1.7%
Ratio of increased mass ([3]; listed as monohydrochloride crystalline form V): small
Concentration (% by weight) 2-Propanol [4]: 0.01 % by weight
Concentration (% by weight) Acetone [4]: 0.02 % by weight
Concentration (% by weight) Ethyl acetate [4]: 0.00 % by weight
Solubility in water for injection [5]: high solubilities

CC#C/C(=N\OC[C@H]1COCCN1)c1ccc2ncnc(Nc3ccc(OCc4cccc(F)c4)c(Cl)c3)c2c1 [Monosulfate crystal]
Ratio of increased mass [3]: About 3.3%
Ratio of increased mass ([3]; listed as monosulfate crystals): about 3.3%
